The source of these data is PMC9822022, “Biginelli Reaction Synthesis of Novel Multitarget-Directed Ligands with Ca^2+ Channel Blocking Ability, Cholinesterase Inhibition, Antioxidant Capacity, and Nrf2 Activation” (Molecules, 2022).

Each structure is given as a SMILES string. Where “and” joins values, the source holds several entries; their conditions need not be identical. Equal values may be shown once.

For one data set, the system named is calcium channel. Briefly: Ca+2 channel blockade, FLIPR Calcium 6 in SH-SY5Y cells. Format: cell-based. The following applies: KCl/CaCl2 triggered, ± SD.
Data set [1] concerns the target T1, hAChE (AChE from human erythrocytes) (Homo sapiens, UniProt P22303).
T1 construct: AChE from human erythrocytes; purchased Sigma Aldrich; host or cells: human erythrocytes (natural source)
Briefly: biochemical. Format: biochemical. The following applies: for IC50: ± SD.
Protocol: The inhibitory capacity of the compounds on AChE biological activity was evaluated using the spectrometric method of Ellman [27]. Acetyl- or butyrylthiocholine iodide and 5,5-dithiobis- (2-nitrobenzoic) acid (DTNB) were purchased from Sigma Aldrich. […] AChE from human erythrocytes (buffered aqueous solution, ≥500 units/mg protein (BCA), Sigma Aldrich) was diluted in 20 mM HEPES buffer, pH 8, 0.1% Triton X-100, to obtain an enzyme solution with 0.25 unit/mL enzyme activity. In the procedure, 100 µL of 0.3 mM DTNB dissolved in phosphate buffer pH 7.4 was added to the 96-well plate followed by 50 µL of test compound solution and 50 µL of enzyme (0.05 U final). After 5 min of preincubation at 25 °C, the reaction was then initiated by the injection of 50 µL of 10 mM acetyl- or butyrylthiocholine iodide solution. […] Assays were performed in singlicate during three independent tests, with a blank containing all components except acetyl- or butyrylthiocholine in order to account for non-enzymatic reaction. The reaction slopes were compared, and the percent inhibition due to the presence of test compounds was calculated by the following: 100 − (vi/v0 × 100) where vi is the rate calculated in the presence of inhibitor and v0 is the enzyme activity.

The nature of data set [2]: ORAC-FL antioxidant assay. The following applies: for ORAC: Trolox equivalents, mean (n = 3) ± SEM; for times less active than melatonin (ORAC): on average.
Protocol: The antioxidant activity of compounds BIGI 4a-d and BIGI 5a-d was determined by the ORAC-FL method. [29] Their radical scavenging properties are expressed as Trolox equivalents (TE) units.
The antioxidant activity of hybrids BIGI 4a-d and BIGI 5a-d was measured by ORAC-FL assay using fluorescein as a fluorescent probe. Briefly, fluorescein and antioxidant were incubated in a black 96-well microplate (Nunc) for 15 min at 37 °C. 2,2′-Azobis(amidinopropane) dihydrochloride was then added quickly using the built-in injector of a Varioskan Flash plate reader (Thermo Scientific, Waltham, MA, USA). […] All the reactions were made in triplicate and at least three different assays were performed for each sample.
Data set [3] has as its target eqBuChE (BuChE from equine serum) (Equus caballus, UniProt P81908). Briefly: biochemical. To be noted: ± SD.
In another data set the test system is AREc32 cells. Briefly: Cytotoxicity against reporter cells (MTT). Format: cell-based. The procedure: […]. Preliminarily, the cytotoxicity of compounds against AREc32 cells were evaluated, showing no toxicity until 50 μM for compounds BIGI 4b, BIGI 4d, and BIGI 5b and until 100 μM for compound BIGI 5d.
Treatment of stable ARE-luciferase reporter cells with the tested compounds and evaluation of the cellular viability: The NRF2/ARE-luciferase reporter HEK293 stable cell line was seeded and treated as described for the luciferase activity determination, except that transparent culture plates were used instead of white plates. After 24 h of incubation with the tested compounds, the percent of cell viability was measured using MTT assay.

The test system of data set [4] is Nrf2-ARE. Briefly: Nrf2/ARE-luciferase reporter cell assay. Format: cell-based. To be noted: for Induction of the Nrf2 transcriptional pathway: 24 h, 5, 10 and 50 μM (up to 100 μM for BIGI 5d); for CD (concentration required to double the specific luciferase reporter activity): 24 h treatment, means ± SEM. The procedure: The Nrf2-ARE-activating effect of BIGI 4b, BIGI 4d, BIGI 5b, and BIGI 5d, the most balanced compounds against cholinesterase inhibition, calcium channel blockade, and antioxidant power, was determined in vitro using a cell-based luciferase assay in the AREc32 cell line, which represents a good model for the redox-dependent activation of Nrf2 [31]. TBHQ was used as the positive control.
AREc32 cells were treated over 24 h with increasing concentrations of each compound (5, 10, 50, 100 μM) and then luciferase activity was measured. Preliminarily, the cytotoxicity of compounds against AREc32 cells were evaluated, showing no toxicity until 50 μM for compounds BIGI 4b, BIGI 4d, and BIGI 5b and until 100 μM for compound BIGI 5d.
CD values (i.e., the concentration required to double the specific activity of the luciferase reporter) were calculated to compare the relative potencies.
Treatment of stable ARE-luciferase reporter cells with the tested compounds and evaluation of the luciferase activity: The NRF2/ARE-luciferase reporter HEK293 stable cell line (Signosis, Santa Clara, CA, USA) was maintained in Dulbecco’s MEM high-glucose (DMEM) medium supplemented with 10% FBS and penicillin–streptomycin at 37 °C in 95% air/5% CO2. For treatment, the cells were seeded at a density of 2 × 10^4 per well in 96-well white microtiter plates. After 48 h, the culture medium was replaced with fresh DMEM supplemented with 0.1% FBS containing different concentrations of the tested compounds or DMSO (0.1%) in duplicate. Luciferase activity was measured after 24 h of treatment using the Bright-Glo luciferase assay system (Promega) according to the manufacturer’s instructions.
A general note: Reporter assays use an easily measured gene product as a stand-in for the process of interest.

The test system of data set [5] is Nrf2-ARE. More on the design: method as in PMID 31838896. The following applies: cited from earlier work.

The IC50 is the concentration at which inhibition is half-maximal. A high value points to weaker potency.

T1 sequence (P22303 other isoform, or with tags, fused parts or gaps): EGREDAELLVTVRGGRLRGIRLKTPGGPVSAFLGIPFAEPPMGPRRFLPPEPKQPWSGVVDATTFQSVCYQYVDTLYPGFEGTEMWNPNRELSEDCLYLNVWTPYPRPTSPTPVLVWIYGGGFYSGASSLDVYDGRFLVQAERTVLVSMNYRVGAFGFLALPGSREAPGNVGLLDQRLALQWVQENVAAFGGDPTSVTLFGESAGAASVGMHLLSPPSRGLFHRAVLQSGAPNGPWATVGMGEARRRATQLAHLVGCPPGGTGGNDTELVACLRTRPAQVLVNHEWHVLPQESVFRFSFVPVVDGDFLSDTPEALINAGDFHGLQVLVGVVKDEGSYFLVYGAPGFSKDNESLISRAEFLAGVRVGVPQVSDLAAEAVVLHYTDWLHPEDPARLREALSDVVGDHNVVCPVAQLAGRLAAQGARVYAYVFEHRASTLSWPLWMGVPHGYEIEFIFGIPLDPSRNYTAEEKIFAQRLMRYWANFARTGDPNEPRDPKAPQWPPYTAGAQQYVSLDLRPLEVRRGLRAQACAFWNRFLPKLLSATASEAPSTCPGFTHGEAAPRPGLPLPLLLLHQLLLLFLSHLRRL
eqBuChE (BuChE from equine serum), sequence (P81908 whole entry): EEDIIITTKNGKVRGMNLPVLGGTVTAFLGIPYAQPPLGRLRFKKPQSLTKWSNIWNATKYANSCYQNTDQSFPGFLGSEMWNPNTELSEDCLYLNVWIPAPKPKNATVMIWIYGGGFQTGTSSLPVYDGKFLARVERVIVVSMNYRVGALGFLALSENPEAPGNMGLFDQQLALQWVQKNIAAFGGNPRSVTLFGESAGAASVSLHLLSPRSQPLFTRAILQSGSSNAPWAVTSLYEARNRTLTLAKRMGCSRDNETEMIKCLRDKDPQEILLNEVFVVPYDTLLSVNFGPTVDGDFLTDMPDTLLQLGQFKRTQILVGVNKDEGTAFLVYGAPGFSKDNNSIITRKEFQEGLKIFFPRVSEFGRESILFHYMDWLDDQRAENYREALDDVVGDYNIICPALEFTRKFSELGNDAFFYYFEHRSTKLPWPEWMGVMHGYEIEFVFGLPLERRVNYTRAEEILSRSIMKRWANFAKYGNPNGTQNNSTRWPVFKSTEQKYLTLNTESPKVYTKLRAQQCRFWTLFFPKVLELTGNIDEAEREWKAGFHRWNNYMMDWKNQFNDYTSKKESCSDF
Protocol for calcium channel: The Ca^+2 channel blockade capacity of compounds BIGI 4a-d and BIGI 5a-d, and nimodipine as standard, at 10 μM concentration was carried out following the usual methodology [28].
The evaluation of the calcium channel blockade of compounds BIGI 4a-d and BIGI 5a-d was carried out using FLIPR Calcium 6 indicator according to previously described protocols [35, 36]. In brief, FLIPR-loaded SH-SY5Y cells were exposed to nimodipine (10 µM, reference inhibitor), DMSO (0.1%, vehicle), or our compounds of interest (10 µM) for 10 min. […] Data were gathered in three independent experiments with eight technical replicates per experiment. Outlier detection by Grubbs’ test was performed and outlying values were excluded from further analysis.

Turning to `C#CCOc1ccc(C2NC(=O)N(CC3CCN(Cc4ccccc4)CC3)C(C)=C2C(=O)OCC)cc1` (stereo not shown) [BIGI 4a, Ethyl 1-((1-benzylpiperidin-4-yl)methyl)-6-methyl-2-oxo-4-(4-(prop-2-yn-1-yloxy)phenyl)-1,2,3,4-tetrahydropyrimidine-5-carboxylate], the “Calcium Antagonism (% Inhibition at 10 μM)” value with calcium channel is listed as 45 ± 11%. Besides, the IC50 in data set [1] is more than 1000 nM; in data set [3] it was 31.2 ± 1.7 µM. Also, in data set [2], the ORAC was 1.44 ± 0.06 TE.

For `C#CCOc1ccc(C2NC(=O)N(CCC3CCN(Cc4ccccc4)CC3)C(C)=C2C(=O)OCC)cc1` (stereo not shown) [BIGI 4b, Ethyl 1-(2-(1-benzylpiperidin-4-yl)ethyl)-6-methyl-2-oxo-4-(4-(prop-2-yn-1-yloxy)phenyl)-1,2,3,4-tetrahydropyrimidine-5-carboxylate], in the data set on calcium channel, the “Calcium Antagonism (% Inhibition at 10 μM)” value was found to be 67 ± 10%. Also, in the data set on AREc32 cells, the “Cytotoxicity: no toxicity until concentration” value came to 50 µM. In data set [1], the “fold less active than Donepezil (hAChE)” value is reported as 27 fold and the IC50 worked out at 342 ± 64 nM. Moreover, in data set [2], the ORAC is 1.60 TE and 1.60 ± 0.15 TE; the “times less active than melatonin (ORAC)” value was approximately 1.4 times. This compound also showed an IC50 in data set [3] of 4.78 ± 0.58 µM. Besides, in the data set with Nrf2-ARE [4], the “Induction of the Nrf2 transcriptional pathway” value (from here on “Induction”) is “able to successfully induce the Nrf2 transcriptional pathway”; the “CD (concentration required to double the specific luciferase reporter activity)” value is 7.1 µM and 7.1 ± 0.8 µM.

As to `C#CCCOc1ccc(C2NC(=O)N(CC3CCN(Cc4ccccc4)CC3)C(C)=C2C(=O)OCC)cc1` (stereo not shown) [BIGI 4c, Ethyl 1-((1-benzylpiperidin-4-yl)methyl)-4-(4-(but-3-yn-1-yloxy)phenyl)-6-methyl-2-oxo-1,2,3,4-tetrahydropyrimidine-5-carboxylate], the “Calcium Antagonism (% Inhibition at 10 μM)” value in the data set with calcium channel turned out to be 40± 13%. In addition, the figures for the IC50 in data set [1] and in data set [3] were more than 1000 nM and more than 10 µM, respectively. Besides, in data set [2], the ORAC was determined as 0.98 ± 0.03 TE.

Turning to `C#CCCOc1ccc(C2NC(=O)N(CCC3CCN(Cc4ccccc4)CC3)C(C)=C2C(=O)OCC)cc1` (stereo not shown) [BIGI 4d, Ethyl 1-(2-(1-benzylpiperidin-4-yl)ethyl)-4-(4-(but-3-yn-1-yloxy)phenyl)-6-methyl-2-oxo-1,2,3,4-tetrahydropyrimidine-5-carboxylate], the “Calcium Antagonism (% Inhibition at 10 μM)” value with calcium channel came out at 50 ± 13%. Further, in the data set on AREc32 cells, the “Cytotoxicity: no toxicity until concentration” value is 50 µM. This compound displayed an IC50 in data set [1] of 462 ± 40 nM. Moreover, in data set [2], the ORAC is 1.85 TE and 1.85 ± 0.16 TE; the “times less active than melatonin (ORAC)” value is approximately 1.4 times. In data set [3], the IC50 amounted to 6.63 ± 0.71 µM. In addition, in the data set on Nrf2-ARE [4], the “Induction” value is listed as “able to successfully induce the Nrf2 transcriptional pathway”; the “CD (concentration required to double the specific luciferase reporter activity)” value is 7.7 µM and 7.7 ± 2.9 µM.

As for `C#CCOc1ccc(C2NC(=S)N(CC3CCN(Cc4ccccc4)CC3)C(C)=C2C(=O)OCC)cc1` (stereo not shown) [BIGI 5a, Ethyl 1-((1-benzylpiperidin-4-yl)methyl)-6-methyl-4-(4-(prop-2-yn-1-yloxy)phenyl)-2-thioxo-1,2,3,4-tetrahydropyrimidine-5-carboxylate], the “Calcium Antagonism (% Inhibition at 10 μM)” value in the data set with calcium channel was found to be 46 ± 18%. For the same compound, the results for the concentration for half-maximal inhibition (IC50) in data set [1] and in data set [3] were more than 1000 nM and 7.64 ± 0.79 µM, respectively. Besides, the ORAC in data set [2] was determined as 1.35 ± 0.04 TE.

With `C#CCOc1ccc(C2NC(=S)N(CCC3CCN(Cc4ccccc4)CC3)C(C)=C2C(=O)OCC)cc1` (stereo not shown) [BIGI 5b, Ethyl 1-(2-(1-benzylpiperidin-4-yl)ethyl)-6-methyl-4-(4-(prop-2-yn-1-yloxy)phenyl)-2-thioxo-1,2,3,4-tetrahydropyrimidine-5-carboxylate], in the data set on calcium channel, the “Calcium Antagonism (% Inhibition at 10 μM)” value is 74 ± 16%. Further, in the data set on AREc32 cells, the “Cytotoxicity: no toxicity until concentration” value is 50 µM. Besides, in data set [1], the “fold less active than Donepezil (hAChE)” value is 27 fold and the midpoint of inhibition, the IC50, lay at 352 ± 15 nM. In addition, in data set [2], the ORAC came to 1.41 ± 0.06 TE. This compound displayed a concentration for half-maximal inhibition (IC50) in data set [3] of 5.43 ± 0.24 µM. In the data set with Nrf2-ARE [4], the “Induction” value is reported as “able to successfully induce the Nrf2 transcriptional pathway”; the “CD (concentration required to double the specific luciferase reporter activity)” value was 13.5 µM and 13.5 ± 9.1 µM.

Take `C#CCCOc1ccc(C2NC(=S)N(CC3CCN(Cc4ccccc4)CC3)C(C)=C2C(=O)OCC)cc1` (stereo not shown) [BIGI 5c, Ethyl 1-((1-benzylpiperidin-4-yl)methyl)-4-(4-(but-3-yn-1-yloxy)phenyl)-6-methyl-2-thioxo-1,2,3,4-tetrahydropyrimidine-5-carboxylate]: the “Calcium Antagonism (% Inhibition at 10 μM)” value in the data set on calcium channel is 63 ± 18%. The 50% inhibitory concentration (IC50) is more than 1000 nM in data set [1] and 33.8 ± 7.89 µM in data set [3]. Moreover, the ORAC in data set [2] is 1.75 TE and 1.75 ± 0.06 TE. For the same compound, in data set [2], the “times less active than melatonin (ORAC)” value is approximately 1.4 times.

As for `C#CCCOc1ccc(C2NC(=S)N(CCC3CCN(Cc4ccccc4)CC3)C(C)=C2C(=O)OCC)cc1` (stereo not shown) [BIGI 5d, Ethyl 1-(2-(1-benzylpiperidin-4-yl)ethyl)-4-(4-(but-3-yn-1-yloxy)phenyl)-6-methyl-2-thioxo-1,2,3,4-tetrahydropyrimidine-5-carboxylate], the “Calcium Antagonism (% Inhibition at 10 μM)” value in the data set on calcium channel is given as 68 ± 12%. Also, in the data set on AREc32 cells, the “Cytotoxicity: no toxicity until concentration” value stood at 100 µM. Further, in data set [1], the IC50 was 1271 ± 5 nM. The ORAC in data set [2] was determined as 1.57 ± 0.13 TE. In data set [3], this compound came in with a 50% inhibitory concentration (IC50) of 8.54 ± 0.71 µM. In addition, in the data set with Nrf2-ARE [4], the “fold less active than TBHQ (CD)” value stood at 42 fold, the “times more active than melatonin (CD)” value was 2 times, the “Induction” value is “able to successfully induce the Nrf2 transcriptional pathway” and the “CD (concentration required to double the specific luciferase reporter activity)” value turned out to be 33.4 ± 4.8 µM. The “CD (concentration required to double the specific luciferase reporter activity)” value in the data set on Nrf2-ARE [4] (listed as 5d) is 33.4 µM.

Take `COc1ccc2[nH]cc(CCNC(C)=O)c2c1` [Melatonin]: the CD in the data set with Nrf2-ARE [5] is 60 µM.

Turning to `COCCOC(=O)C1=C(C)NC(C)=C(C(=O)OC(C)C)C1c1cccc([N+](=O)[O-])c1` (stereo not shown) [Nimodipine, reference compound], the “Calcium Antagonism (% Inhibition at 10 μM)” value in the data set with calcium channel amounted to 50± 10%.

`CC(C)(C)c1cc(O)ccc1O` [TBHQ, reference compound]: the “CD (concentration required to double the specific luciferase reporter activity)” value in the data set on Nrf2-ARE [4] is 0.8 µM and 0.8 ± 0.2 µM.
